According to paper PMC8269107, “Lipidation of Temporin-1CEb Derivatives as a Tool for Activity Improvement, Pros and Cons of the Approach” (International Journal of Molecular Sciences, 2021):
Where a SMILES comes first, the peptide text is derived from it. [ ]: non-standard residue; d: D form. The star is where a group is joined. Lauroyl = CCCCCCCCCCCC(=O)*; Pentanoyl = CCCCC(=O)*; AEEA = NCCOCCOCC(=O)O; βAla = NCCC(=O)O

Assays:
[1] = Serum stability in 25% human serum (RP-UPLC); conditions: male, amount of the intact compound, after 5 h of incubation in 25% human serum, 37 °C
Description: At the beginning of the experiment, 25% human serum (human serum, from human male AB plasma, Sigma-Aldrich) was centrifuged at 12,000 rpm for 10 min in order to remove the excessive amount of lipids in the serum preparation, and the supernatant was collected and incubated at 37 °C for 15 min under shaking. The assay was initiated upon the addition of the peptide to the serum yielding a final peptide concentration of 75 µg/mL. The 50 µL aliquots of the incubated mixtures were taken at the following time intervals: 0, 30, 60, 120, 240 and 300 min. The aliquots were mixed with 50 µL of absolute ethanol, incubated on ice for 15 min to precipitate serum proteins and then centrifuged (12,000 rpm, 10 min). The supernatants were collected and lyophilized. Dry samples were further dissolved in 100 µL of HPLC-grade water and then analyzed. […]
RP-UPLC analysis was performed using Nexera system (Shimadzu Europe GmbH, Duisburg, Germany) with C12 Jupiter Proteo column (150 × 2 mm, 90Å, 4 micron) (Phenomenex, USA) applying a linear aqueous acetonitrile gradient 1–80%B in 20 min using solutions A (0.1% TFA in water) and B (0.1%TFA in 80% acetonitrile) with a flow rate 0.6 mL/min and detection at 220 nm. The quantity of the intact peptide at each time point was expressed as a percentage of the peak area with respect to time “zero” (100%).

S. aureus PCM 2054 = format: cell-based, Staphylococcus aureus; conditions: S. aureus PCM 2054, Mueller-Hinton broth + 1% human serum
Description: Additionally, we performed a comparative analysis of MICs obtained for the tested compounds against S. aureus PCM2054 in two types of growth medium, i.e., the standard MHB and MHB supplemented with 1% human serum and in the absence of 1% serum. The assay was performed as described in 4.3.1.

S. aureus = assay: LIVE/DEAD BacLight bacterial viability; format: cell-based, Staphylococcus aureus; conditions: 0.39-25 µg/mL, 3 and 6 h of co-incubation
Description: Evaluation of the bacterial viability in the presence or absence of the tested compounds was performed according to the protocols developed for the laboratory kit LIVE/DEAD ®® BacLight TM Bacterial Viability Kits (Molecular Probes Europe BV, Amsterdam, The Netherlands). Briefly, late log phase cultures of E. coli and S. aureus in Luria-Bertani broth were harvested by centrifugation at 4000× g, the supernatant was removed, and pellets were resuspended in sterile water solution of 0.85% NaCl. Again, bacterial cells were centrifuged under the same conditions. In order to remove traces of growth, the medium washing step was repeated twice. At the end, pellets were resuspended in a fresh sterile 0.85% NaCl solution and diluted, yielding suspensions of E. coli, containing about 2 × 10^8 CFU/mL, and S. aureus with about 2 × 10^7 CFU/mL. Subsequently, 90 µL of bacterial suspensions (E. coli or S. aureus, respectively) were transferred to 96-well microtiter plates and 10 µL of the tested peptides were added to final concentrations ranging from 0.39 µg/mL to 25 µg/mL. […] Fluorescence was read with excitation wavelength set at 485 nm and emission wavelengths set at 530 nm (for green dye) and 630 nm (red dye) by means of CLARIOstar®® plate reader (BMG LABTECH, Germany).

Row | SMILES | remaining at 5 h, 75 µg/mL [1] | MIC (S. aureus PCM 2054) | relative viability of S. aureus (live/dead) (S. aureus)
1 | CCCCC(=O)NCCC(=O)N[C@@H](Cc1c[nH]cn1)C(=O)NCCOCCOCC(=O)N[C@H](C(=O)N[C@@H](CCCCN)C(=O)N[C@@H](CCCCN)C(=O)N[C@H](C(=O)N[C@@H](CC(C)C)C(=O)N[C@@H](CO)C(=O)N[C@@H](CCCCN)C(=O)N[C@H](C(=O)N[C@@H](CCCCN)C(=O)N[C@@H](CCCCN)C(=O)N[C@@H](CC(C)C)C(=O)N[C@@H](CC(C)C)C(N)=O)[C@@H](C)CC)[C@@H](C)CC)[C@@H](C)CC [C5-CAR-PEG-DK5] ({Pentanoyl-βAla}-H[AEEA]IKKILSKIKKLL-NH2) | 77% |  | 
2 | CCCCC(=O)N[C@H](C(=O)N[C@@H](CCCCN)C(=O)N[C@@H](CCCCN)C(=O)N[C@H](C(=O)N[C@@H](CC(C)C)C(=O)N[C@@H](CO)C(=O)N[C@@H](CCCCN)C(=O)N[C@H](C(=O)N[C@@H](CCCCN)C(=O)N[C@@H](CCCCN)C(=O)N[C@@H](CC(C)C)C(=O)N[C@@H](CC(C)C)C(N)=O)[C@@H](C)CC)[C@@H](C)CC)[C@@H](C)CC [Compound C5-DK5] (Pentanoyl-IKKILSKIKKLL-NH2) | 46.2% | 25 µg/mL | 
3 | CCCCCCCCCCCC(=O)N[C@H](C(=O)N[C@@H](CCCCN)C(=O)N[C@@H](CCCCN)C(=O)N[C@H](C(=O)N[C@@H](CC(C)C)C(=O)N[C@@H](CO)C(=O)N[C@@H](CCCCN)C(=O)N[C@H](C(=O)N[C@@H](CCCCN)C(=O)N[C@@H](CCCCN)C(=O)N[C@@H](CC(C)C)C(=O)N[C@@H](CC(C)C)C(N)=O)[C@@H](C)CC)[C@@H](C)CC)[C@@H](C)CC [Compound C12-DK5] (Lauroyl-IKKILSKIKKLL-NH2) |  | 25 µg/mL | most active
